In PMC8286840, “Identifying SARS-CoV-2 antiviral compounds by screening for small molecule inhibitors of Nsp3 papain-like protease” (Biochemical Journal, 2021) one finds remaining activity data, which are given here for 19 molecules.

Structures can show the parent of a compound that is named as a salt. Where two headings read alike, the source gives them in different places.

Assay [1] deals with T1, SARS-CoV-2 PLpro (nsp3 1564–1878) (Severe acute respiratory syndrome coronavirus 2, UniProt P0DTD1). In words: biochemical. Also on record: FRET-quenched peptide (Pro3) cleavage by PLpro, 10 min pre-incubation, slope over 20 min, normalised to no-compound control. Conditions: low concentration screen, read-out: % of control remaining.
Assay [2] addresses T1, SARS-CoV-2 PLpro (nsp3 1564–1878). Kind of assay: biochemical. Particulars: high concentration screen, read-out: % of control remaining. The arrangement: FRET-quenched peptide (Pro3) cleavage by PLpro, 10 min pre-incubation, slope over 20 min, normalised to no-compound control.

Take `C[Se]CC[C@H](N)C(=O)O` [Selenomethionine]: the remaining activity at 1.25 µM in assay [1] (Well no.=4141) was 97.8%. Further, the remaining activity at 3.75 µM in assay [2] (Well no.=4141) came to 98.7%.
Consider `CC(C)[C@H](O)C(=O)N[C@@H](C)C(=O)N[C@@H]1C(=O)N(C)CCc2ccccc21` [Semagacestat (LY450139)], for which the remaining activity at 1.25 µM in assay [1] (Well no.=4614) is 102%. In addition, the remaining activity at 3.75 µM in assay [2] (Well no.=4614) was determined as 101%.
Regarding `NNC(N)=O` [Semicarbazide hydrochloride], in assay [1] (Well no.=1406), the remaining activity at 1.25 µM stood at 99.7%. In addition, the remaining activity at 3.75 µM in assay [2] (Well no.=1406) turned out to be 99.4%.
Turning to `C/C=C1/C[C@@H](C)[C@@](C)(O)C(=O)OCC2=CCN3CC[C@@H](OC1=O)[C@@H]23` [Senecionine], in assay [1] (Well no.=3464), the remaining activity at 1.25 µM is 98.3%. Further, the remaining activity at 3.75 µM in assay [2] (Well no.=3464) came out at 99.1%.
Consider `C[C@H](O)C(=O)C1=Nc2c(nc(N)[nH]c2=O)NC1` [Sepiapterin], for which, in assay [1] (Well no.=1183), the remaining activity at 1.25 µM turned out to be 99.7%. Further, the remaining activity at 3.75 µM in assay [2] (Well no.=1183) is 96.3%.
As for `CC1=C(C)C(=O)C(C(CCCCCC(=O)O)c2ccccc2)=C(C)C1=O` (centres unmarked) [Seratrodast], the remaining activity at 1.25 µM in assay [1] (Well no.=3857) amounted to 98.1%; in assay [1] (Well no.=7375), 103%. The values for the remaining activity at 3.75 µM in assay [2] (Well no.=3857) and in assay [2] (Well no.=7375) were 102% and 103%, respectively.
Regarding `c1ccc2c(CCNc3ccc(Nc4ccncc4)cc3)c[nH]c2c1` [Serdemetan], in assay [1] (Well no.=6730), the remaining activity at 1.25 µM stood at 97.7%. The remaining activity at 3.75 µM in assay [2] (Well no.=6730) was 101%.
Turning to `NCCc1c[nH]c2ccc(O)cc12` [Serotonin hydrochloride], the remaining activity at 1.25 µM in assay [1] (Well no.=616) was 98.2%. In addition, in assay [2] (Well no.=616), the remaining activity at 3.75 µM was found to be 100%.
On to `Clc1ccc(C(Cn2ccnc2)OCc2csc3c(Cl)cccc23)c(Cl)c1` (centres unmarked) [Sertaconazole nitrate], for which, in assay [1] (Well no.=5411), the remaining activity at 1.25 µM worked out at 89.7%. Further, in assay [2] (Well no.=5411), the remaining activity at 3.75 µM was 93%.
Consider `Clc1ccc(C(Cn2ccnc2)OCc2csc3c(Cl)cccc23)c(Cl)c1` (centres unmarked) [Sertaconazole], for which the remaining activity at 1.25 µM in assay [1] (Well no.=1840) was found to be 101%. For the same molecule, the remaining activity at 3.75 µM in assay [2] (Well no.=1840) worked out at 98.3%.
`O=C1NCCN1CCN1CCC(c2cn(-c3ccc(F)cc3)c3ccc(Cl)cc23)CC1` [Sertindole]: the remaining activity at 1.25 µM was 98.4% in assay [1] (Well no.=5420) and 93.4% in assay [1] (Well no.=6604). Further, the remaining activity at 3.75 µM in assay [2] (Well no.=5420) was 102%; in assay [2] (Well no.=6604) it was 96.1%.
Turning to `O=C(O)Cn1c2c(c3cc(F)ccc31)CN(C(=O)c1cccc3ccccc13)CC2` [Setipiprant], the remaining activity at 1.25 µM in assay [1] (Well no.=7707) turned out to be 99.9%. The remaining activity at 3.75 µM in assay [2] (Well no.=7707) stood at 103%.
As to `CN1CCC2=C(C1)c1ccccc1Cc1ccccc12` [Setiptiline (maleate)], the remaining activity at 1.25 µM in assay [1] (Well no.=6907) was 101%. Also, in assay [2] (Well no.=6907), the remaining activity at 3.75 µM came out at 101%.
Take `CN1CCC2=C(C1)c1ccccc1Cc1ccccc12` [Setiptiline]: in assay [1] (Well no.=6857), the remaining activity at 1.25 µM amounted to 98.8%. In addition, the remaining activity at 3.75 µM in assay [2] (Well no.=6857) stood at 94.5%.
As for `O=C(O)C1=C[C@@H](O)[C@@H](O)[C@H](O)C1` [Shikimic acid], the remaining activity at 1.25 µM in assay [1] (Well no.=3116) came to 98.2%; in assay [1] (Well no.=7209), 104%. Besides, the remaining activity at 3.75 µM stood at 98.6% in assay [2] (Well no.=3116) and 102% in assay [2] (Well no.=7209).
For the molecule `CC(C)CC(N(C)C)C1(c2ccc(Cl)cc2)CCC1` (centres unmarked) [Sibutramine], the remaining activity at 1.25 µM in assay [1] (Well no.=2249) is 95.2%. The remaining activity at 3.75 µM in assay [2] (Well no.=2249) came out at 98.7%.
With `CN/C(=N\c1ccc(C2=NNC(=O)CC2C)cc1)NC#N` (centres unmarked) [Siguazodan], the remaining activity at 1.25 µM in assay [1] (Well no.=2154) worked out at 91.7%. Moreover, the remaining activity at 3.75 µM in assay [2] (Well no.=2154) is 94.5%.
Take `CCCc1nn(C)c2c(=O)[nH]c(-c3cc(S(=O)(=O)N4CCN(C)CC4)ccc3OCC)nc12` [Sildenafil Mesylate]: the remaining activity at 1.25 µM in assay [1] (Well no.=8206) amounted to 106%. Moreover, the remaining activity at 3.75 µM in assay [2] (Well no.=8206) is 103%.
As for `CCCc1nn(C)c2c(=O)[nH]c(-c3cc(S(=O)(=O)N4CCN(C)CC4)ccc3OCC)nc12` [Sildenafil citrate], the remaining activity at 1.25 µM in assay [1] (Well no.=4821) stood at 94.7%. For the same molecule, the remaining activity at 3.75 µM in assay [2] (Well no.=4821) is 94.2%.
